Source: ChEMBL document CHEMBL3430912, “GSK Tres Cantos Anti-Kinetoplastid Screening (TCAKS) Data”
pIC50: −log10 of the molar value.

Key:
[1] = system: Trypanosoma brucei brucei; test: GSK_TCAKS: pIC50 Trypanosoma brucei viability assay using luminiscence. Assay plates (1536-well) were prepared. T. brucei cultures were harvested and counted in a CASY cell counter. A parasite suspension was prepared at a final concentration of 5 * 10^4 cells/mL in complete HMI9 medium and 6uL was dispensed to all wells containing compounds using a Multidrop Combi dispenser. 6uL of HMI9 media with 0.4% DMSO were dispensed to control columns. Plates were incubated for 24 h at 37C, 5% CO2 then tempered for 10 min at room temperature. ATP content was quantified by adding 4 uL of CellTiter-Glo Reagent (Promega) according to the manufacturer's instructions. Luminescence was measured using a ViewLux.; type: functional, organism-based; settings: Lister 427, CASY
[2] = system: Leishmania donovani; test: (§1) GSK_TCAKS: pIC50 Leishmania donovani Imaging: Infected Macrophages. Assay plates (384-well) were prepared by adding 250nL of compound to each well. For single shot assay, the final compound concentration was 5 uM. […] Automated image analysis was performed with a script developed on Acapella High Content Imaging and Analysis Software (PerkinElmer). Output: Percent of infected macrophage cells were reported for each well.; type: functional, organism-based, Homo sapiens; settings: THP-1
[3] = GSK_TCAKS: pIC50 HepG2 human cell line viability assay using luminiscence. […] Seeding density was checked to ensure that new mono-layers were not more than 50% confluent at the time of harvesting. Cell suspension was added to 500 mL of the same medium at a final density of 1.2 * 10^5 cells/mL. This cell suspension was dispensed (25 uL, 3000 cells per well) into 384-well clear-bottom plates using a Multidrop Combi dispenser. Prior to addition of the cell suspension, the screening compounds (250 nL) were pre-dispensed into the plates with an Echo liquid handler. Plates were incubated for 48 h at 37C, 5% CO2. After incubation, plates equilibrated at room temperature for 30 min before proceeding to develop the luminescent signal. The signal developer, CellTiter-Glo Reagent, was allowed to equilibrate at room temperature for 30 min and added to the plates (25uL per well) using a Multidrop Combi dispenser. Plates were left for 10 min at room temperature for stabilization and then read using a ViewLux.; type: toxicity, cell-based
[4] = system: Leishmania donovani; test: as §1, with “Amastigotes/Macrophages.” for “Infected Macrophages.”, “Average number” for “Percent”, “amastigotes per” for “infected”, “cell” for “cells”; type: functional, organism-based, Homo sapiens; settings: THP-1
[5] = system: Trypanosoma cruzi; test: (§2) GSK_TCAKS: pIC50 H2C9 Imaging: H9c2 Host Cardiomyocytes. […] Cells were then washed once with PBS before infection. T. cruzi trypomastigotes, collected at days 5 to 8 after infection from LLC-MK2 parasite infected cultures, were allowed to swim out for 4h at 37C from a centrifuged pellet (2,500 rpm/10 min/room temperature). Trypomastigotes were then collected and counted in a CASY Cell Counter. Trypomastigotes, in supplemented DMEM, were added to H9c2 cultures in a multiplicity of infection of 1 and incubated for 18 h. Cells were washed once with PBS before incubation of the infected H9c2 monolayer with trypsin (Life-Technologies) to detach cells from the flask. Cells were counted in a CASY Cell Counter using a 150 um capillary and their density set at 5 * 10^4 cells per mL in supplemented assay DMEM. Infected H9c2 were dispensed into 384-well poly-lysine coated assay plates at 50uL per well using a Multidrop Combi dispenser. After seeding them, the plates were incubated at 37C, 5% CO2 for 72h. Cultures were then fixed and stained by addition of 50 uL of a solution containing 8% formaldehyde and 4 uM DRAQ5 DNA dye (BioStatus, UK) per well. […] Five images were collected per well for reliable statistical analysis. Automated image analysis was performed with a script developed on Acapella High Content Imaging and Analysis Software (PerkinElmer). Output: Number of H9c2 Host Cardiomyocytes nuclei to determine drug-related cytotoxicity.; type: functional, organism-based, Rattus norvegicus; settings: H9c2, 4 h
[6] = system: Trypanosoma cruzi; test: GSK_TCAKS: pIC50 Trypanosoma cruzi viability assay using beta-GAL activity. This assay was run at single shot at 5uM compound concentration per well. The biological reagents consisted of NIH-3T3 host cells and trypomastigotes parasitic cells; both cell types were set to a 3.3 * 10^5 cells/mL dilution in assay DMEM by means of a CASY cell counter device using a 60um capillary. 6 uL of the mixture were dispensed per well (about 1 * 10^3 host-cells and 1 * 10^3 parasites) with a Multidrop Combi dispenser. […] In all wells, the percentage of DMSO never exceeded 0.5%. Plates incubated for four days at 37C, 5% CO2. The substrate used for the assay fluorescence intensity (FLINT) readout was resorufin-beta-D-galactopiranoside (Sigma-Aldrich) at 5uM per well. It was diluted in PBS supplemented with the soft detergent Igepal (Fluka).; type: functional, organism-based, Mus musculus; settings: Tulahuen, NIH3T3
[7] = system: Leishmania donovani; test: as §1, with “THP-1 Host” for “Infected”, “THP-1 cell count” for “Percent of infected macrophage cells”; type: functional, organism-based, Homo sapiens
[8] = molecular target: Sterol 14-alpha demethylase (Trypanosoma cruzi (strain CL Brener), UniProt Q7Z1V1); test: GSK_TCAKS: pIC50 CYP51 from Trypanosoma cruzi.; type: functional
[9] = system: Trypanosoma cruzi; test: as §2, with “Trypanosoma cruzi” for “H2C9”, “Amastigotes/Cell.” for “H9c2 Host Cardiomyocytes.”, “number” for “Number”, “amastigotes per cell as infection level measurement.” for “H9c2 Host Cardiomyocytes nuclei to determine drug-related cytotoxicity.”; type: functional, organism-based, Rattus norvegicus; settings: H9c2, 4 h
[10] = system: Trypanosoma cruzi; test: as §2, with “Trypanosoma cruzi” for “H2C9”, “Infected Cells.” for “H9c2 Host Cardiomyocytes.”, “percentage” for “Number”, “infected cells per well as a second infection marker.” for “H9c2 Host Cardiomyocytes nuclei to determine drug-related cytotoxicity.”; type: functional, organism-based, Rattus norvegicus; settings: H9c2, 4 h
[11] = system: Trypanosoma brucei brucei; test: GSK_TCAKS: pIC50 Trypanosoma brucei viability assay using fluorescence intensity. Assay plates (1536-well) were prepared by dispensing 25nL of compound solution per well using an Echo acoustic dispenser (Labcyte).; type: functional, organism-based; settings: Lister 427, 2 h
[12] = system: Leishmania donovani; test: GSK_TCAKS: pIC50 Leishmania donovani viability assay using fluorescence intensity. Assay plates (1536-well) were prepared by adding 30nL per well of compound. For single shot assay, the final compound concentration was 5uM. […] Briefly, eGFP LdBOB axenic amastigotes were harvested, fixed and counted in a CASY cell counter (Roche-Applied Science). A final concentration of 1.5 * 10^5 cells per well were prepared in amastigote media containing 500 U/mL penicillin/streptomycin (Invitrogen) and 6uL was dispensed to each experimental well using a Multidrop Combi dispenser (Thermo Scientific). 6uL of assay media was dispensed to control columns used as reference for 100% compound response. Following incubation for 72 h at 37C, 5% CO2, 2 uL of resazurin was added to each well at a final concentration of 0.5 mM in phosphate buffered saline (PBS) with IGEPAL (Sigma-Aldrich), 0.05% (v/v).; type: functional, organism-based

Chain of Sterol 14-alpha demethylase (Q7Z1V1 whole entry): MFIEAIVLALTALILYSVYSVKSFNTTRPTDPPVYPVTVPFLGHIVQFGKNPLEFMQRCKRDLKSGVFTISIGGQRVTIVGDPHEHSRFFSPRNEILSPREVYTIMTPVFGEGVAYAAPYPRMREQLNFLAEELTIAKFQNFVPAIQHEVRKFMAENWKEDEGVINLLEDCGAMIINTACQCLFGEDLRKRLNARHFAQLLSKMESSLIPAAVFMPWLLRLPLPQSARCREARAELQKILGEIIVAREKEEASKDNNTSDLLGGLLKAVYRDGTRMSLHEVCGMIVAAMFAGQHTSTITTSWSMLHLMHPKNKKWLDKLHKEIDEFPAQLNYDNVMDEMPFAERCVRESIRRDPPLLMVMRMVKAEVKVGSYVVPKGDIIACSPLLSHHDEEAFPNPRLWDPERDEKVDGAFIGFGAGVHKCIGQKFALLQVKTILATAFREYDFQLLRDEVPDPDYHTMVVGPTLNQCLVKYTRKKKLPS

Compound	pIC50 [1]	pIC50 [2]	IC50 at 48 h [3]	pIC50 [4]	pIC50 [5]	pIC50 [6]	pIC50 [7]	pIC50 [8]	pIC50 [9]	pIC50 [10]	pIC50 [11]	pIC50 [12]
COc1cc(F)c2ncc(F)c(CCN3CC[C@H](NCc4cc5c(cn4)OCS5)[C@@H](O)C3)c2c1	6.30	4.80	50.1 µM	4.90	< 4.30	6.40	4.80	4.50	6.70	6.60	6.60	4.60
CC(C)S(=O)(=O)c1ccc(-c2cnc(N)c3cc(-c4ccnc(N)n4)ccc23)cc1	6.60	5.90	15.8 µM	6.30	6.30	6.10	5.60	4.80	4.90	4.40	6.70	5.70
O=[N+]([O-])c1ccc(-c2nnn(-c3ccc(Cl)cc3)n2)o1	6.00	< 4.30	> 100 µM	< 4.30	5.00	6.60	< 4.30	< 4.00	7.10	6.10	6.50	5.20
Cc1nc(C(=O)Nc2ccc3c(c2)OCO3)nn1-c1ccc(F)cc1	< 4.40	5.10	> 100 µM	5.60	< 4.30	5.50	< 4.30	4.40	6.00	5.90	< 4.40	5.70
NCC(Cc1ccccc1)NC(=O)c1cnc(-c2c[nH]c3ncccc23)s1 (centres undefined)	6.00	4.80	79.4 µM	4.90	6.20	5.70	5.20	6.00	4.70	< 4.30	6.40	< 4.30
COCc1cc(Nc2ccc(Cl)cc2)nc(-c2ccccn2)n1	< 4.40	5.90	12.6 µM	6.10	5.90	5.80	4.70	< 4.00	5.60	5.30	4.70	5.60
COCc1cnc2c(c1SCc1c(F)cccc1Cl)c(=O)n(C)c(=O)n2C	< 4.40	5.30	> 100 µM	5.30	< 4.30	< 4.30	< 4.30	4.60	5.60	5.40	5.40	5.40
O=C(NC(CO)c1ccc(F)cc1)c1ccc(-c2c[nH]c3ncccc23)s1 (centres undefined)	6.10	4.60	39.8 µM	4.70	5.40	5.00	5.00	5.90	4.90	4.80	6.60	4.50
CCc1cccc(CC)c1-n1c(SCC(=O)NC(=O)NCc2ccco2)nnc1-c1cccnc1	6.10	< 4.30	> 100 µM	< 4.30	< 4.30	4.90	< 4.30	6.00	5.10	4.90	6.40	< 4.30
CCN(Cc1cccs1)C(=O)CSc1nnc(-c2ccc3c(c2)OCO3)o1	< 4.40	5.70	> 100 µM	5.70	< 4.30	5.40	< 4.30	5.10	5.80	5.60	4.60	5.50
Cc1nc2c(-c3cccs3)c(C)nn2c(NCCO)c1C	6.70	< 4.30	> 100 µM	< 4.30	< 4.30	4.40	< 4.30	< 4.00	4.80	4.50	6.90	< 4.30
O=C(CN(Cc1ccccn1)Cc1ccccn1)NCc1ccc(-c2csnn2)cc1	5.10	5.30	25.1 µM	5.30	< 4.10	5.40	< 4.10	4.40	5.10	4.20	4.90	5.10
O=C(CN(Cc1ccccn1)Cc1ccccn1)NCc1csc(-c2cccs2)n1	4.80	5.20	> 100 µM	5.50	< 4.30	5.40	< 4.30	4.40	5.60	5.20	4.70	4.90
O=C(c1cccc(Nc2ncc(-c3ccc4c(c3)OCO4)cn2)c1)N1CCSC1	< 4.40	5.70	10 µM	6.00	6.00	5.60	4.90	4.80	6.70	6.60	4.90	5.90
CNC(=O)Oc1ccc(C(=O)NCc2ccccc2)cc1OC(=O)NC	6.40	< 4.30	> 100 µM	< 4.30	< 4.30	4.50	< 4.30	< 4.00	4.40	4.40	6.90	< 4.30
Cn1nc(-c2ccc(NC(=O)Cc3ccccc3Cl)cc2)c2c(N)ncnc21	6.60	< 4.30	> 100 µM	< 4.30	5.10	5.70	< 4.30	4.20	6.00	5.90	6.40	< 4.30
COc1ccc(-c2csc(NC(=O)c3ccc([N+](=O)[O-])s3)n2)cc1	6.10	5.40	> 100 µM	5.80	4.50	6.80	< 4.30	< 4.00	6.70	6.60	7.10	5.50
